Where two headings read alike, the source gives them in different places.
How the values were obtained:
mTORC1 = molecular target: T1, mTORC1 (Homo sapiens, UniProt P42345+P62942); assay: Inhibition assay for mTORC1: phosphorylation of pS6K at Thr389, AlphaLISA in PC3 cells; type: cell-based; conditions: for IC50: read-out: pIC50 mTORC1 (converted)
T1 construct: endogenous in cells; host or cells: PC3 cells (human prostate adenocarcinoma)

mTORC2 = molecular target: T2, mTORC2 (Homo sapiens, UniProt P42345+P62942); assay: Inhibition assay for mTORC2: phosphorylation of pAkt at Ser473, AlphaLISA in PC3 cells; type: cell-based; conditions: for IC50: read-out: pIC50 mTORC2 (converted)
T2 construct: endogenous in cells; host or cells: PC3 cells (human prostate adenocarcinoma)
T2 sequence (P62942 2-108 limits assumed, other chains not shown): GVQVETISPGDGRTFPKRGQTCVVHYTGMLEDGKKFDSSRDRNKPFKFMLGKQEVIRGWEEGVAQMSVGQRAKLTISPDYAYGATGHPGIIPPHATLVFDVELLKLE

[1] = PC3 cells, treated 24 hours, pS6K Thr389, AlphaLISA, C16 diastereomer mixtures not separated
[2] = PC3 cells, treated 24 hours, pAkt Ser473, AlphaLISA, C16 diastereomer mixtures not separated

Compound	IC50 (mTORC1) [nM]	IC50 (mTORC2) [nM]	other results
CO[C@@H]1C[C@H](C[C@@H](C)[C@@H]2CC(=O)[C@H](C)/C=C(\C)[C@@H](O)[C@@H](OC)C(=O)[C@H](C)C[C@H](C)/C=C/C=C/C=C(\C)C(OCCCO)C[C@@H]3CC[C@@H](C)[C@@](O)(O3)C(=O)C(=O)N3CCCC[C@H]3C(=O)O2)CC[C@H]1OCCCc1ccccc1 (mixture of isomers) [Compound 67, (1R,9S,12SR,15R,16E,18R,19R,21R,23S,24E,26E,28E,32SR,35R)-1,18-dihydroxy-30-(3-hydroxypropoxy)-19-methoxy-12-[(1R)-2-[(1S,3R,4R)-3-methoxy-4-(3-phenylpropoxy)cyclohexyl]-1-methyl-ethyl]-15,17,21,23,29,35-hexamethyl-11,36-dioxa-4-azatricyclo[30.3.1.0^4,9]hexatriaconta-16,24,26,28-tetraene-2,3,10,14,20-pentone]	–	–	IC50 (mTORC1; [1]): 0.316 to 3.16 nM; IC50 (mTORC2; [2]): > 10000 nM
COC1C[C@@H]2CC[C@@H](C)[C@@](O)(O2)C(=O)C(=O)N2CCCCC2C(=O)O[C@H]([C@H](C)C[C@@H]2CC[C@@H](OC(=O)NCCCN3CCCCC3)[C@H](OC)C2)CC(=O)[C@H](C)/C=C(\C)[C@@H](O)[C@@H](OC)C(=O)[C@H](C)C[C@H](C)/C=C/C=C/C=C/1C (stereo partly shown) [Compound 366]	> 3.16	1000 to 10000	–
COCCOC1C[C@@H]2CC[C@@H](C)[C@@](O)(O2)C(=O)C(=O)N2CCCCC2C(=O)O[C@H]([C@H](C)C[C@@H]2CC[C@@H](O)[C@H](OC)C2)CC(=O)[C@H](C)/C=C(\C)[C@@H](O)[C@@H](OC)C(=O)[C@H](C)C[C@H](C)/C=C/C=C/C=C/1C (stereo partly shown) [Compound 220]	< 0.316	1000 to 10000	–
CO[C@@H]1C[C@H](C[C@@H](C)[C@@H]2CC(=O)[C@H](C)/C=C(\C)[C@@H](O)[C@@H](OC)C(=O)[C@H](C)C[C@H](C)/C=C/C=C/C=C(\C)C(OCCO)C[C@@H]3CC[C@@H](C)[C@@](O)(O3)C(=O)C(=O)N3CCCCC3C(=O)O2)CC[C@H]1OCCCN1C[C@@H](C)O[C@@H](C)C1 (stereo partly shown) [Compound 18]	–	–	pIC50 mTORC1 (mTORC1; [1]): A (pIC50 for mTORC1 of >9.5 as A); pIC50 mTORC2 (mTORC2; [2]): A (PIC50 for mTORC2 of <5 as A)
COC1C[C@@H]2CC[C@@H](C)[C@@](O)(O2)C(=O)C(=O)N2CCCCC2C(=O)O[C@H]([C@H](C)C[C@@H]2CC[C@@H](OC(=O)NCCOCCOCCOCCOCCO)[C@H](OC)C2)CC(=O)[C@H](C)/C=C(\C)[C@@H](O)[C@@H](OC)C(=O)[C@H](C)C[C@H](C)/C=C/C=C/C=C/1C (stereo partly shown) [Compound 347]	< 0.316	< 1000	–
COCO[C@@H]1CC[C@@H](C[C@@H](C)[C@@H]2CC(=O)[C@H](C)/C=C(\C)[C@@H](O)[C@@H](OC)C(=O)[C@H](C)C[C@H](C)/C=C/C=C/C=C(\C)C(OC)C[C@@H]3CC[C@@H](C)[C@@](O)(O3)C(=O)C(=O)N3CCCCC3C(=O)O2)C[C@H]1OC (stereo partly shown) [Compound 301]	< 0.316	< 1000	–
COC1C[C@@H]2CC[C@@H](C)[C@@](O)(O2)C(=O)C(=O)N2CCCCC2C(=O)O[C@H]([C@H](C)C[C@@H]2CC[C@@H](OCCCOCCO)[C@H](OC)C2)CC(=O)[C@H](C)/C=C(\C)[C@@H](O)[C@@H](OC)C(=O)[C@H](C)C[C@H](C)/C=C/C=C/C=C/1C (stereo partly shown) [Compound 319]	< 0.316	< 1000	–
COCCO[C@@H]1CC[C@@H](C[C@@H](C)[C@@H]2CC(=O)[C@H](C)/C=C(\C)[C@@H](O)[C@@H](OC)C(=O)[C@H](C)C[C@H](C)/C=C/C=C/C=C(\C)C(OC)C[C@@H]3CC[C@@H](C)[C@@](O)(O3)C(=O)C(=O)N3CCCCC3C(=O)O2)C[C@H]1OC (stereo partly drawn) [Compound 315, (1R,9S,12S,15R,16E,18R,19R,21R,23S,24E,26E,28E,30S,32S,35R)-1,18-dihydroxy-19,30-dimethoxy-12-[(1R)-2-[(1S,3R,4R)-3-methoxy-4-(2-methoxyethoxy)cyclohexyl]-1-methyl-ethyl]-15,17,21,23,29,35-hexamethyl-11,36-dioxa-4-azatricyclo[30.3.1.0^4,9]hexatriaconta-16,24,26,28-tetraene-2,3,10,14,20-pentone]	< 0.316	< 1000	–

Source: US11702429B2, “mTORC modulators and uses thereof” (Aeovian Pharmaceuticals, Inc., priority 2019, dated 2023)
